From paper PMC10341698, “Identification of Anti-Influenza A Compounds Inhibiting the Viral Non-Structural Protein 1 (NS1) Using a Type I Interferon-Driven Screening Strategy” (International Journal of Molecular Sciences, 2023)

Tests used:
NS1 = conditions: cited from earlier work
[1] = system: influenza virus A/PR/8/34(H1N1); conditions: A549 cells; for reduction of viral replication: 50 µM, 3 h before infection, MOI 0.1, 24 h p.i., HAU
A(H1N1)pdm09 NS1 [2] = assay: Confirmation in the IFN-β luciferase system (flash type); type: cell-based, A(H1N1)pdm09 influenza virus; conditions: HEK 293 cells, 50 μM
in vitro = conditions: human
Protocol: (§1) Cytotoxic concentration to cause death to 50% of viable cells (CC50) was calculated by neutral red uptake assay (NRU) assay [64]. In brief, 1 × 10^4 A549 cells were seeded in 96-well plates and exposed to different concentrations of cpds 157, 164 (25, 50, 100, 200, and 400 μM) or equivalent volumes of DMSO as a control for 48 h. At the end of the exposure time, cells were washed with phosphate-buffered saline (PBS) before being incubated for 3 h in a medium supplemented with neutral red (50 μg/mL). The medium was washed off rapidly with PBS, and cells were incubated for a further 15′ at R.T. in a mixture of 1% acetic acid and 50% ethanol to extract the dye. Absorbance was then measured at 540 nm using a micro-plate reader (Biorad). Neutral red powder was purchased from Sigma-Aldrich. The percentage of cell death for each compound concentration, compared to the corresponding DMSO amount in untreated controls (y-axis), was plotted against increasing cpd concentrations (x-axis). Data were transformed in log scale [x = log(x)], and a linear regression analysis was used to calculate the CC50 concentration.

IFN-β mRNA = assay: qRT-PCR of IFN-β mRNA in infected A549 cells; type: cell-based, human; conditions: A/PR/8/34(H1N1)-infected A549 cells, 24 h p.i., normalized with GAPDH and HAU
[3] = system: IFN-β promoter luciferase reporter; type: cell-based, human
[4] = system: influenza virus A/PR/8/34(H1N1); assay: microbe, parasite or virus in culture; conditions: unidentified influenza virus, A549, 24 h
RNase L mRNA = assay: qRT-PCR of RNase L mRNA in infected A549 cells; type: cell-based, human; conditions: A/PR/8/34(H1N1)-infected A549 cells, 24 h p.i., normalized with GAPDH and HAU
2′5′ OAS mRNA = assay: qRT-PCR of OAS mRNA in infected A549 cells; type: cell-based, human; conditions: A/PR/8/34(H1N1)-infected A549 cells, 24 h p.i., normalized with GAPDH and HAU
PKR mRNA = assay: qRT-PCR of PKR mRNA in infected A549 cells; type: cell-based, human; conditions: A/PR/8/34(H1N1)-infected A549 cells, 24 h p.i., normalized with GAPDH and HAU
A(H1N1)pdm09 NS1 [5] = assay: IFN-β promoter luciferase screening of the diverse library (glow type); type: cell-based, A(H1N1)pdm09 influenza virus; conditions: HEK 293 cells; for increase of IFN-β promoter stimulation: 50 μM, 42 h treatment, glow luciferase, single experiment
A549 cells = conditions: human, 48 h
Protocol: as §1

SMILES	EC50 (NS1) [µM]	therapeutic index (CC50/IC50) [1]	reduction of viral replication [1] [%]	restoration of the luciferase signal (A(H1N1)pdm09 NS1 [2])	CC50 at 48 h (in vitro) [µM]	fold increase in IFN-β mRNA accumulation (IFN-β mRNA) [fold]	non-specific activity on the reporter, alone or with IFN inducer, without NS1 [3]	IC50 [4] [µM]	fold increase for RNase L (RNase L mRNA) [fold]	fold increase for 2′5′ OAS (2′5′ OAS mRNA) [fold]	fold increase for PKR (PKR mRNA) [fold]	increase of IFN-β promoter stimulation (A(H1N1)pdm09 NS1 [5])	CC50 (A549 cells) [µM]	IFN-β promoter assay with the reference NS1 inhibitor (A(H1N1)pdm09 NS1 [5]; 5 μM)
Nc1ccccc1C(=O)NCCCc1ccccc1 [A22]	~0.05	–	–	–	–	–	–	–	–	–	–	–	–	–
CCc1ccc(NC(=O)COC(=O)c2ccc3ccccc3n2)cc1 [Compound 157]	–	> 7.8	50	significant restoration of the luciferase signal	> 400	2.7	without showing non-specific activities	51.6	2.5	2.3	4.5	at least 50%	–	–
O=C(CSc1nnnn1-c1ccccc1)NCc1ccccc1 [Compound 164]	–	3.6	60	significant restoration of the luciferase signal	> 150	3.2	without showing non-specific activities	46.4	2.3	1.7	1.7	at least 50%	169	–
O=C(NCCCc1ccccc1)c1ccccc1O [JJ3297, reference compound]	0.8	–	–	–	–	–	–	–	–	–	–	–	–	specificity of the IFN-β promoter assay was also confirmed
O=C(N/N=C/c1ccc2c(c1)CCC2)c1ccccc1O [NSC125044]	8	–	–	–	–	–	–	–	–	–	–	–	–	–
